Here are results for 2 compounds from patent US20060166905A1, “Aivlosin for the treatment of disease due to brachyspira pilosicoli or ornithobacterium rhinotracheale” (ECO Animal Health, LTD., priority 2003, published 2006).

Common to all, as to format: cell-based
Experiment [1] has as its system Brachyspira hyodysenteriae (P18A). The experiment can be described thus: MIC by antibiotic dilution method in agar plates, control strain. To be noted: Control P1 8A. As to the method: (§1) The MIC of acetyl isovaleryltylosin was determined against 5 field strains of Brachyspira pilosicoli isolated from different pig populations in various parts of England using an antibiotic dilution method. Four replicates of 0.2 ml of each isolate were inoculated into agar plates prepared with antibiotic concentrations from 0.78 to 200 μg/ml. A strain of Brachyspira hyodysenteriae (P18A), for which the MIC for acetyl isovaleryltylosin was already known, was used as a control.

In the next experiment the test system is Brachyspira pilosicoli. Kind of experiment: MIC of aivlosin by antibiotic dilution method in agar plates. As to the method: Determination of Minimum Inhibitory Concentration (MIC) of Aivlosin Against Brachyspira pilosicoli
as §1

In experiment [2] the test system is Ornithobacterium rhinotracheale. Kind of experiment: MIC test, twofold dilution in serum broth. Particulars: for MIC: Ornithobacterium rhinotracheale, read-out: concentration that inhibited the growth (MIC). As to the method:
Testing of Aivlosin and Tilmicosin (Pulmotil) Against Ornithobacterium rhinotracheale Using the MIC (Minimum Inhibitory Concentration) Test
The following antibiotics were each tested against four isolates of Ornithobacterium rhinotracheale (OR):
The antibiotics were tested against the following isolates of OR:
The concentration needed of each antibiotic was calculated according to its active ingredient.
The four freeze dried bacterial isolates of Ornithobacterium rhinotracheale were reconstituted, inoculated into 10 ml serum broth (supplied by OBP, code 655) and incubated at 37° C. for 48 hours. After incubation the optical density (OD) of each culture was read at 540 nm. To verify purity the cultures were plated out onto Blood Tryptose agar plates, incubated at 37° C., using 5 % CO2 conditions, for 48 hours after which the plates were examined for any contaminants.
12 tubes per isolate for each of the antibiotics were placed into a test tube rack. 2 ml serum broth was dispensed into each of the tubes. 2 ml of the antibiotic were then added to the first tube in the respective row and a twofold dilution were made (32 μg/ml-0.0625 μg/ml). 20 μl of the bacteria was then added to 11 of the tubes. The 12th tube, i.e. negative control received neither antibiotic nor bacteria. The 11th tube i.e. positive control only received 20 μl bacteria. All the tubes were then incubated at 37° C. and the MIC read after 48 hours incubation

[3] abbreviates: even at relatively low concentrations.

Converted amounts (≈) assume the structure as drawn. Read-outs that look alike come from different tables or passages of the source.

Consider `CCC1OC(=O)CC(OC(C)=O)C(C)C(OC2OC(C)C(OC3CC(C)(O)C(OC(=O)CC(C)C)C(C)O3)C(N(C)C)C2O)C(CC=O)CC(C)C(=O)C=CC(C)=CC1COC1OC(C)C(O)C(OC)C1OC` (stereo not drawn) [Aivlosin, 3-O-acetyl-4″-O-isovaleryl-tylosin], for which the MIC in experiment [1] was 12.5 µg/mL (≈ 12 µM); with Brachyspira pilosicoli (field strain 0P0204-10-97(4)), less than 0.781 µg/mL; in the experiment on Brachyspira pilosicoli (field strain P0098-10-97) it was 25.0 µg/mL; in the experiment with Brachyspira pilosicoli (field strain P0352-10-98) it was 6.25 µg/mL; in the experiment with Brachyspira pilosicoli (field strain P0525-01-98), 6.25 µg/mL; in the experiment on Brachyspira pilosicoli (field strain P0730-09-97) it was 12.5 µg/mL. Further, the “preventing the growth of Brachyspira pilosicoli” value in the experiment with Brachyspira pilosicoli (setting [3]) is “particularly effective”. Further, the MIC range with Brachyspira pilosicoli (field strains, with the exception of isolate P0204-10-97 (4)) lay within 6.25 to 25.0 µg/mL. Besides, in experiment [2] (setting [3]), the “preventing the growth of Ornithobacterium rhinotracheale” value is listed as “particularly effective”. Moreover, the “concentration that inhibited the growth (MIC)” value in experiment [2] (the isolates tested (four)) is 0.5 µg/mL.
Take `CC[C@H]1OC(=O)C[C@@H](O)[C@H](C)[C@@H](O[C@@H]2O[C@H](C)[C@@H](O)[C@H](N(C)C)[C@H]2O)[C@@H](CCN2C[C@H](C)C[C@H](C)C2)C[C@@H](C)C(=O)/C=C/C(C)=C/[C@@H]1CO[C@@H]1O[C@H](C)[C@@H](O)[C@@H](OC)[C@H]1OC` [Pulmotil, Tilmicosin]: the MIC in experiment [2] (the fourth isolate) worked out at 8 µg/mL (≈ 9.2 µM); in experiment [2] (three of the isolates tested), 4 µg/mL (≈ 4.6 µM).
